In patent publication US20090069300A1, “ISOQUINOLINYL AND ISOINDOLINYL DERIVATIVES AS HISTAMINE-3 ANTAGONISTS” (Wyeth, priority 2007, published 2009):
Where a name gives a salt, the structure may show the parent alone.

Row | melting point [°C] | Compound
1 | 222 to 224 | O=C(NC1CC1)c1ccc(-c2ccc3c(c2)CCN(CCN2CCCC2)C3=O)cc1 (as salt: hydrochloride) [Example 57, N-cyclopropyl-4-[1-oxo-2-(2-pyrrolidin-1-ylethyl)-1,2,3,4-tetrahydroisoquinolin-6-yl]benzamide]
2 | 272 to 274 | O=C(c1ccc(-c2ccc3c(c2)CCN(CCN2CCCC2)C3=O)cc1)N1CCOCC1 (as salt: hydrochloride) [Example 122, 6-[4-(morpholin-4-ylcarbonyl)phenyl]-2-(2-pyrrolidin-1-ylethyl)-3,4-dihydroisoquinolin-1(2H)-one]
3 | 241 to 243 | O=C1c2ccc(-c3ccc(F)cc3)cc2CCN1CCN1CCCCC1 (as salt: hydrochloride) [Example 43, 6-(4-fluorophenyl)-2-(2-piperidin-1-ylethyl)-3,4-dihydroiso-quinolin-1(2H)-one hydrochloride]
4 | 158 to 159 | CNC(=O)c1ccc(-c2ccc3c(c2)CCN(CCCN2CCCC2)C3=O)cc1 (as salt: hydrochloride) [Example 141, N-methyl-4-[1-oxo-2-(3-pyrrolidin-1-ylpropyl)-1,2,3,4-tetrahydroisoquinolin-6-yl]benzamide]
5 | 240 to 241 | CCCNC(=O)c1ccc(-c2ccc3c(c2)CCN(CCN2CCCC2)C3=O)cc1 (as salt: hydrochloride)
6 | 118 to 120 | COC(=O)c1ccc(-c2ccc3c(c2)CCN(CCN2CCCC2)C3=O)cc1 (as salt: hydrochloride)
7 | 190 to 191 | CON(C)C(=O)c1ccc(-c2ccc3c(c2)CCN(CCN2CCCC2)C3=O)cc1 (as salt: hydrochloride) [Example 102, N-methoxy-N-methyl-4-(1-oxo-2-(2-(pyrrolidin-1-yl)ethyl)-1,2,3,4-tetrahydroisoqui-nolin-6-yl)benzamide]
8 | 209 to 210 | CCNC(=O)c1ccc(-c2ccc3c(c2)CCN(CCN2CCCC2)C3=O)c(F)c1 (as salt: hydrochloride) [Example 140, N-ethyl-3-fluoro-4-[1-oxo-2-(2-pyrrolidin-1-ylethyl)-1,2,3,4-tetrahydroisoquinolin-6-yl]benzamide]
9 | 215 to 216 | O=C(NCCF)c1ccc(-c2ccc3c(c2)CCN(CCN2CCCC2)C3=O)cc1 (as salt: hydrochloride) [Example 68, N-(2-fluoroethyl)-4-[1-oxo-2-(2-pyrrolidin-1-ylethyl)-1,2,3,4-tetrahydroisoquinolin-6-yl]benzamide]
10 | 178 to 180 | COCCNC(=O)c1ccc(-c2ccc3c(c2)CCN(CCN2CCCC2)C3=O)cc1 (as salt: hydrochloride) [Example 69, N-(2-methoxyethyl)-4-[1-oxo-2-(2-pyrrolidin-1-ylethyl)-1,2,3,4-tetrahydroisoquinolin-6-yl]benzamide]
11 | 216 to 218 | O=C(NCC1CC1)c1ccc(-c2ccc3c(c2)CCN(CCN2CCCC2)C3=O)cc1 (as salt: hydrochloride) [Example 60, N-(cyclopropylmethyl)-4-[1-oxo-2-(2-pyrrolidin-1-ylethyl)-1,2,3,4-tetrahydroiso-quinolin-6-yl]benzamide]
12 | 200 to 201 | CCN(C)C(=O)c1ccc(-c2ccc3c(c2)CCN(CCN2CCCC2)C3=O)cc1 (as salt: hydrochloride) [Example 124, N-ethyl-N-methyl-4-[1-oxo-2-(2-pyrrolidin-1-ylethyl)-1,2,3,4-tetrahydroisoquinolin-6-yl]benzamide]
13 | 193 to 195 | CCOCCNC(=O)c1ccc(-c2ccc3c(c2)CCN(CCN2CCCC2)C3=O)cc1 (as salt: hydrochloride) [Example 72, N-(2-ethoxyethyl)-4-[1-oxo-2-(2-pyrrolidin-1-ylethyl)-1,2,3,4-tetrahydroisoquinolin-6-yl]benzamide]

Further lines, the compound ahead of its results:

Row | Compound | melting point [°C]
14 | C[C@@H]1CCCN1CCN1CCc2ccc(-c3ccc(C(=O)N4CCCC4)cc3)cc2C1=O (as salt: hydrochloride) [Example 86, 2-{2-[(2R)-2-methylpyrrolidin-1-yl]ethyl}-7-[4-(pyrrolidin-1-ylcarbonyl)phenyl]-3,4-dihydroisoquinolin-1(2H)-one] | 214 to 215
15 | C[C@@H]1CCCN1CCN1CCc2cc(OCc3ccc(C#N)cc3)ccc2C1=O (as salt: hydrochloride) [Example 120, (R)-4-((2-(2-(2-Methylpyrrolidin-1-yl)ethyl)-1-oxo-1,2,3,4-tetra-hydroisoquinolin-6-yloxy)methyl)benzonitrile hydrochloride] | 212 to 214
16 | C[C@@H]1CCCN1CCN1CCc2cc(C(=O)N3CCCCCC3)ccc2C1=O (as salt: hydrochloride) [Example 144, 6-(azepan-1-ylcarbonyl)-2-{2-[(2R)-2-methylpyrrolidin-1-yl]ethyl}-3,4-dihydroisoquinolin-1(2H)-one] | 192 to 193
17 | NC(=O)c1ccc(-c2ccc3c(c2)CCN(CCN2CCCC2)C3)cc1 (as salt: hydrochloride) [Example 180, 4-[2-(2-pyrrolidin-1-ylethyl)-1,2,3,4-tetrahydroisoquinolin-6-yl]benzamide] | 262 to 264
18 | CN(C)C(=O)c1ccc(-c2ccc3c(c2)CCN(CCN2CCCC2)C3)cc1 (as salt: hydrochloride) [Example 183, N,N-dimethyl-4-[2-(2-pyrrolidin-1-ylethyl)-1,2,3,4-tetrahydroisoquinolin-6-yl]benzamide] | 248 to 250
19 | C[C@@H]1CCCN1CCN1CCc2cc(-c3ccc(C(=O)NCC4CC4)cc3)ccc2C1=O (as salt: hydrochloride) [Example 73, N-(cyclopropylmethyl)-4-(2-{2-[(2R)-2-methylpyrrolidin-1-yl]ethyl}-1-oxo-1,2,3,4-tetrahydroisoquinolin-6-yl)benzamide] | 188 to 190
20 | N#Cc1ccc(Oc2ccc3c(c2)CCN(CCN2CCCC2)C3=O)nc1 (as salt: hydrochloride) [Example 47, 6-{[1-oxo-2-(2-pyrrolidin-1-ylethyl)-1,2,3,4-tetrahydroisoquinolin-6-yl]oxy}nicotinonitrile] | 189 to 190
21 | O=C(c1ccc(-c2ccc3c(c2)CCN(CCN2CCCC2)C3)cc1)N1CCCCC1 (as salt: hydrochloride) [Example 185, 6-[4-(piperidin-1-ylcarbonyl)phenyl]-2-(2-pyrrolidin-1-ylethyl)-1,2,3,4-tetrahydroisoquinoline] | 270 to 272
22 | O=C(c1ccc2c(c1)CCN(CCN1CCCC1)C2=O)N1CCCCC1 (as salt: hydrochloride) [Example 155, 6-(piperidine-1-carbonyl)-2-(2-(pyrrolidin-1-yl)ethyl)-3,4-dihydroisoquinolin-1(2H)-one] | 144 to 147
23 | C[C@@H]1CCCN1CCN1CCc2cc(N3CCCCC3)ccc2C1=O (as salt: hydrochloride) [Example 161, 2-{2-[(2R)-2-methylpyrrolidin-1-yl]ethyl}-6-piperidin-1-yl-3,4-dihydroisoquinolin-1(2H)-one] | > 225
24 | O=C1c2ccc(-c3cccc(OC(F)(F)F)c3)cc2CCN1CCN1CCCC1 (as salt: hydrochloride) [Example 13, 2-(2-pyrrolidin-1-ylethyl)-6-[3-(trifluoromethoxy)phenyl]-3,4-dihydroisoquinolin-1(2H)-one] | 135 to 137
25 | O=C(O)c1ccc(Oc2ccc3c(c2)CCN(CCN2CCCC2)C3=O)cc1 | 99 to 100
26 | C[C@@H]1CCCN1CCN1CCc2cc(C(=O)N3CCCC3)ccc2C1=O (as salt: hydrochloride) [Example 151, 2-{2-[(2R)-2-methylpyrrolidin-1-yl]ethyl}-6-(pyrrolidin-1-ylcarbonyl)-3,4-dihydroisoquinolin-1(2H)-one] | 166 to 167
27 | c1ccc(-c2ccc3c(c2)CCN(CCN2CCCC2)C3)cc1 [Example 178] | 268 to 270
28 | O=C1c2ccc(-c3cccc(F)c3)cc2CCN1CCN1CCCC1 (as salt: hydrochloride) [Example 18, 6-(3-fluorophenyl)-2-(2-pyrrolidin-1-ylethyl)-3,4-dihydroisoquinolin-1(2H)-one] | 182 to 184
29 | N#Cc1cccc(-c2ccc3c(c2)CCN(CCN2CCCC2)C3=O)c1 (as salt: hydrochloride) [Example 15, 3-[1-oxo-2-(2-pyrrolidin-1-ylethyl)-1,2,3,4-tetrahydroisoquinolin-6-yl]benzonitrile] | 204 to 206
30 | C[C@@H]1CCCN1CCN1CCc2cc(-c3ccc(C(=O)N4CCCC4)cc3)ccc2C1=O (as salt: hydrochloride) [Example 66, 2-{2-[(2R)-2-methylpyrrolidin-1-yl]ethyl}-6-[4-(pyrrolidin-1-ylcarbonyl)phenyl]-3,4-dihydroisoquinolin-1(2H)-one] | 243 to 244
31 | N#Cc1cccc(-c2ccc3c(c2)CCN(CCCN2CCCC2)C3=O)c1 (as salt: hydrochloride) [Example 33, 3-[1-oxo-2-(3-pyrrolidin-1-ylpropyl)-1,2,3,4-tetrahydroisoquinolin-6-yl]benzonitrile] | 175 to 176
32 | C[C@H]1CCCN1CCN1CCc2cc(-c3ccc(F)cc3)ccc2C1=O (as salt: hydrochloride) [Example 39, 6-(4-fluorophenyl)-2-{2-[(2S)-2-methylpyrrolidin-1-yl]ethyl}-3,4-dihydroiso-quinolin-1(2H)-one hydrochloride] | 244 to 247
33 | CN1CCc2cc(-c3ccc4c(c3)CCN(CCN3CCCC3)C4=O)ccc2C1=O (as salt: hydrochloride) [Example 158, 2-methyl-2′-(2-(pyrrolidin-1-yl)ethyl)-3,3′,4,4′-tetrahydro-6,6′-biisoquinoline-1,1′(2H,2′H)-dione hydrochloride] | 225 to 226
34 | C[C@@H]1CCCN1CCN1CCc2cc(N3CCCC3)ccc2C1=O (as salt: hydrochloride) [Example 165, (R)-2-(2-(2-methylpyrrolidin-1-yl)ethyl)-6-(pyrrolidin-1-yl)-3,4-dihydroisoquinolin-1(2H)-one] | 182 to 183
